{"source": "patent US12485117B2", "about": "“Compositions and methods for activating signaling through the CB1 cannabinoid receptor for treating and preventing diseases and disorders characterized by abnormal cellular accumulation of sphingolipids such as sphingomyelin” (Wylder Nation Foundation, priority 2018, dated 2025)", "key": {"wt and ASMko mice [1]": {"tested_on": "wt and ASMko mice", "test": "Y maze test (hippocampal dependent memory)", "type": "in vivo, mouse", "conditions": "0.3 mg/kg every three days", "protocol": "FIGS. 13A-13C show the effect of PF-04457845 treatment on various behavioral functions. […] (n=14; **p<0.01, *p<0.05).\n(§1) Treatment started at 7 weeks of age and continued for 8 weeks. PF-04457845 was dissolved in 0.9% NaCl and delivered through oral gavage at a dose of 0.3 mg/kg every three days. We chose this dose based on the studies published by Ahn et al., (J Pharm Exp Ther 2011). Control groups received same volume of 0.9% NaCl without PF-04457845.\nHippocampal dependent memory was monitored by the Y maze test (FIG. 13A). During the first training trial (8 min) the mice were only allowed to explore two arms (the initial arm and one other arm), maintaining the third arm (novel arm) closed. After 1 hour, the mice were placed back in the same starting arm with free access to all three arms for 5 min.\nThe time spent in the novel arm was counted and expressed as a percentage of the total exploration time. Non-treated ASMko mice spent less time in the novel arm than wt mice, indicative of impaired memory."}, "microglia": {"tested_on": "microglia", "test": "Acute toxicity: brain inflammation by iba-1 immunofluorescence (microglia numbers)", "type": "in vivo, mouse", "conditions": "ASMko mice", "excerpt": "FIGS. 29A-29C show representative images of immunofluorescence against ibal, a marker for microglia, which is used as a readout for inflammation. FIGS. 29A-29C show ibal expression in hippocampus (FIG. 29A), cerebellum (FIG. 29B), and cortex (FIG. 29C), respectively, of wt and ASMko mice treated with PF-04457845 at the indicated doses or with vehicle.\n(§2) We divided wt and ASMko mice of 4.5 months of age in six experimental groups: ASMko control (n=3), ASMko low dose (n=3), ASMko intermediate dose (n=3), ASMko high dose (n=3), wt control (n=3), wt high dose (n=3). PF-04457845, provided as powder, was dissolved in 0.9% NaCl and administered to mice through oral gavage. Vehicle groups received same volume of 0.9% NaCl.\nInflammation was analyzed in different brain areas (hippocampus, cerebellum and cortex) by immunofluorescence against the microglia marker iba-1. Under inflammatory conditions the number of microglia increases. Confirming high inflammation in the brain of vehicle-treated ASMko mice, microglia numbers increased compared to wt mice in all areas (FIGS. 29A-29C)."}, "wt and ASMko mice [2]": {"tested_on": "wt and ASMko mice", "test": "Accelerating Rotarod (motor abilities)", "type": "in vivo, mouse", "conditions": "0.3 mg/kg every three days", "protocol": "as §1\nCerebellar dependent motor abilities were monitored in an accelerating Rotarod (FIG. 12) on which the mice were trained for two days at a constant speed: the first day four times at 4 rpm for 1 min and the second day four times at 8 rpm for 1 min. On the third day, the Rotarod was set to progressively accelerate from 4 to 40 rpm for 5 min and the mice were tested four times. During the accelerating trials, the latency to fall from the rod was measured. Non-treated ASMko mice spent less time on the rod in the four trials than wt mice, indicative of impaired motor abilities."}, "ASMko cultured neurons [3]": {"tested_on": "ASMko cultured neurons", "test": "TUNEL assay of neuronal death in ASMko cultured neurons", "type": "cell-based, mouse", "conditions": "50 μM for 1 hour", "protocol": "FIG. 10B is a graph showing mean±SEM percentage of apoptotic cells, measured by TUNEL assay, with respect to the positive control in which the cells were treated with H202.\nThe percentage of dying neurons showing DNA fragmentation was 5-8% in the treated ASMko cultures similar to the non-treated ones."}, "[4]": {"tested_on": "permeabilized ASMko neurons", "test": "Lysenin staining of SM in intracellular compartments of permeabilized ASMko neurons", "type": "cell-based, mouse", "conditions": "1 hour at 50 μM (FIG. 9)", "protocol": "Statistical significance Student's t-test, *P<0.05, n=3 independent cultures.\nTo determine whether SM hydrolysis induced by FAAH inhibitors was taking place not only at the cell surface, but also in intracellular compartments, we performed staining with lysenin, a worm toxin that specifically binds to SM, in permeabilized ASMko neurons non-treated or treated with anandamide, URB, PF-04457845 or JNJ for 1 hour at 50 μM."}, "anandamide levels": {"tested_on": "anandamide levels", "test": "Anandamide levels by mass spectrometry in the hippocampus", "type": "in vivo, mouse", "conditions": "0.3 mg/kg every three days", "protocol": "FIGS. 18A-18B show hippocampal anandamide and CB1 levels in wt and ASMko mice treated or not treated with PF-04457845. […] Graphs show mean±SEM CB1 intensity in arbitrary units (n=5, *p<0.05).\nas §1\nPF-04457845 inhibits the enzyme (FAAH) that hydrolyzes the endocannabinoid anandamide, which in turn activates the CB1 receptor leading to neutral sphingomyelinase activation and sphingomyelin hydrolysis. To determine the effects of PF-04457845 treatment in the endocannabinoid system we analyzed anandamide and CB1 levels in the brain of PF-04457845 treated and non-treated mice."}, "macrophages": {"tested_on": "macrophages", "test": "Acute toxicity: liver inflammation by F4/80 immunofluorescence (macrophage cell area)", "type": "in vivo, mouse", "conditions": "ASMko mice", "protocol": "as §2\nInflammation was analyzed in the liver by immunofluorescence against the macrophage marker F4/80. Under inflammatory conditions macrophages acquire an amoeboid shape indicative of maximal activation."}, "wt and ASMko mice [5]": {"tested_on": "wt and ASMko mice", "test": "Survival analysis (life span)", "type": "in vivo, mouse", "protocol": "as §1\nBehavioral analyses were performed in the last 2 weeks of treatment while still administering the drug. Then, half of the mice were sacrificed for biochemical and histological analysis and the other half continued receiving the treatment to monitor life span.\nSeven mice per condition remained under treatment to monitor life span. While the mean survival of non-treated ASMko mice was 29 weeks, PF-04457845 treatment extended ASMko mice mean life span to 38 weeks (FIG. 19)."}, "ASMko cultured neurons [6]": {"tested_on": "ASMko cultured neurons", "test": "MAP2 immunofluorescence of dendrites in ASMko cultured neurons", "type": "cell-based, mouse", "conditions": "50 μM for 1 hour"}}}
{"smiles": "O=C(Nc1cccnn1)N1CCC(=Cc2cccc(Oc3ccc(C(F)(F)F)cn3)c2)CC1", "note": "[PF-04457845]", "values": [{"measurement": "time in the novel arm of Y maze (memory)", "setting": "wt and ASMko mice [1]; ASMko mice", "result": "restored memory function"}, {"measurement": "time in the novel arm of Y maze, treated versus non-treated", "setting": "wt and ASMko mice [1]; wt mice", "result": "No differences"}, {"measurement": "microglia numbers in hippocampus, cerebellum and cortex", "setting": "microglia; single dose 0.1 mg/kg", "result": "did not significantly alter microglia numbers"}, {"measurement": "microglia numbers in hippocampus, cerebellum and cortex", "setting": "microglia; single dose 1 mg/kg", "result": "remarkably reduced microglia numbers to levels similar to wt mice"}, {"measurement": "microglia numbers in hippocampus, cerebellum and cortex", "setting": "microglia; single dose 5 mg/kg", "result": "remarkably reduced microglia numbers to levels similar to wt mice"}, {"measurement": "time on the rod (Rotarod)", "setting": "wt and ASMko mice [2]; ASMko mice, second, third and fourth trials", "result": "significantly improved the time on the rod"}, {"measurement": "time on the rod (Rotarod), treated versus non-treated", "setting": "wt and ASMko mice [2]; wt mice", "result": "No differences"}, {"measurement": "neuronal death as assessed by TUNEL", "setting": "ASMko cultured neurons [3]", "result": "did not induce neuronal death"}, {"measurement": "SM levels in intracellular compartments (lysenin staining)", "setting": "[4]", "result": "significantly reduced SM levels"}, {"measurement": "increase of anandamide levels in the hippocampus", "setting": "anandamide levels; ASMko mice", "result": 1.96, "unit": "fold"}, {"measurement": "increase of anandamide levels in the hippocampus", "setting": "anandamide levels; wt mice", "result": 2.09, "unit": "fold"}, {"measurement": "liver macrophage amoeboid morphology / cell area", "setting": "macrophages; single dose 0.1 mg/kg", "result": "did not significantly alter macrophage amoeboid morphology"}, {"measurement": "liver macrophage cell area", "setting": "macrophages; single dose 1 mg/kg", "result": "remarkably reduced macrophage cell area to levels similar to wt mice"}, {"measurement": "liver macrophage cell area", "setting": "macrophages; single dose 5 mg/kg", "result": "remarkably reduced macrophage cell area to levels similar to wt mice"}, {"measurement": "lifespan extended", "setting": "wt and ASMko mice [5]; ASMko mice", "result": 31, "unit": "%"}, {"measurement": "mean life span", "setting": "wt and ASMko mice [5]; ASMko mice, continued treatment 0.3 mg/kg every three days", "result": 38, "unit": "weeks"}, {"measurement": "survival", "setting": "wt and ASMko mice [5]; wildtype mice", "result": "did not affect"}, {"measurement": "morphology, length, appearance of dendrites (MAP2)", "setting": "ASMko cultured neurons [6]", "result": "did not alter the morphology, length or homogeneous appearance of dendrites"}]}
